This data set concerns MDA-MB-231 tumors. As to the kind of experiment: Effect of dietary folate on CRS and antitumor activity. In kind it is in vivo, NSG mice. The protocol:
All animal care and use were performed according to NIH guidelines and in compliance with protocols approved by the Purdue University Animal Use and Care Committee. Female 4 to 5-weeks-old NOD/SCID gamma (NSG™) mice (stock number: 005557) were purchased from The Jackson Laboratory (Bar Harbor, ME). Unless specifically indicated, all animals were maintained on a FA-deficient diet (TestDiet, St. Louis, MO) upon arrival and throughout the study. To establish subcutaneous xenografts, MDA-MB-231 and HOS-FRα were implanted in the right flank region at 2.5 × 10^6 and 1 × 10^6 cells per animal, respectively. For intravenous xenografts, THP1-FRβ cells were inoculated at 5 × 10^6 cells per animal. Subcutaneous tumors were measured 2–3 times per week with a caliper and calculated using the ellipsoidal formula (length x width^2)/2. […] All animal doses (CAR-T cells, EC17, sodium fluorescein) were given intravenously.
For MDA-MB-231 studies, mice received a high dose (~10 million) of a “clinical facsimile” of E2-CAR-T cells (~39% EGFRt+) with a low differentiation profile. Two days later, we started them with 3 different treatment regimens of EC17 at an average tumor size of ~293 ± 39 mm^3. The EC17 dosing was given once-a-week (SIW) at 500 nmol/kg on Mondays, or as escalating doses of 5, 50, or 100, and 500 or 1,000 nmol/kg on Monday, Thursday, and Monday with a 6 day break in-between cycles. Control mice were left untreated (received CAR-T cells but no EC17). For comparison, a cohort of tumor-free littermates also received the same number of CAR-T cells without or with EC17 SIW at 500 nmol/kg. To study the effect of high dietary folate, two sets of NSG mice were placed on either a FA-replete diet (4 mg/kg, Envigo, Indianapolis, IN) or a FA-deficient diet (TestDiet, St. Louis, MO) upon arrival. On day 0, both sets of the mice received ~10 million of the same “clinical facsimile” CAR-T cells followed by no EC17 or EC17 SIW at 500 nmol/kg starting on day 3. On the first day of EC17 administration, MDA-MB-231 tumors size averaged around ~549 ± 184 mm^3 (280–918 mm^3) in FA-replete mice, and ~559 ± 165 mm^3 (356–961 mm^3) in FA-deficient mice.
Depending on the CAR-T cell dose and how EC17 is administered, tumor-bearing mice receiving FITC-specific CAR-T cells can experience severe CRS and varying degrees of body weight loss ([27], [33], [34]). Therefore, we developed a CRS grading system (0–5 scale) to empirically assess CRS toxicity from animals' gross morphology and social behavior to allow for better timing of CRS rescue. While grades 0 and 5 indicated normal (no CRS) or death (due to severe CRS), respectively, grades 1, 2, and 3–4 were considered mild, light-to-moderate, and severe CRS. In addition, all EC17 doses were intentionally given toward the end of any given day to allow potential CRS symptoms to develop overnight. On the days immediately following each EC17 dose, animals were scored and rescue agents such as sodium fluorescein, folic acid and leucovorin were used to mitigate CRS toxicity ([33]). In this particular instance, a batch of E2-CAR-T cells with a high EGFRt+ CD4/CD8 ratio (~93:7) was given to HOS-FRα tumor-bearing mice at a mixture of ~2.5 million CD8 and ~33 million CD4 on day 0. When EC17 was dosed, respectively, at 500, 100, and 500 nmol/kg on days 3, 10, and 12, low CRS (grades 1–2) was noted on days 4 and 11 but high CRS (grade 3) was noted on day 13. To mitigate the severe CRS toxicity, sodium fluorescein was intravenously administrated at ~96 mg/kg in the morning of day 13 and mouse plasma samples were collected 6 h later for analysis of CRS-associated cytokines.

Setting [1] is: FA-deficient diet, ~10 million E2-CAR-T cells, subsequent EC17 doses SIW 500 nmol/kg.
Setting [2] is: FA-replete diet, EC17 SIW 500 nmol/kg, ~10 million E2-CAR-T cells, n = 5.

For the compound `Nc1nc2ncc(CNc3ccc(C(=O)NC(CCC(=O)NCCNC(=S)Nc4ccc(-c5c6ccc(=O)cc-6oc6cc(O)ccc56)c(C(=O)O)c4)C(=O)O)cc3)nc2c(=O)[nH]1` (stereo not drawn) [EC17, FA-(γ)-ethylenediamine-FITC], for the setting “FA-deficient diet, EC17 SIW 500 nmol/kg, ~10 million E2-CAR-T cells, n = 5”, the cures is 5/5. Besides, the “CD3ε+ EGFRt+ CAR-T cells in blood” value (FA-deficient diet, day 52, EC17 SIW 500 nmol/kg) is 1.6–20.4 × 10^4 per 100 μL blood. Moreover, under setting [1], the CRS grade is on record as 2–3 and the body weight loss was at most 11.4%. Also, under setting [2], the complete responses is on record as 2/5, the cures is on record as 2/5 and the partial response was 1/5. Further, the “CD3ε+ EGFRt+ CAR-T cells in blood” value (FA-replete diet, day 59, EC17 SIW 500 nmol/kg) is 0.027–4.3 × 10^3 per 100 μL blood. For the same compound, the CRS symptoms entry (FA-replete diet, ~10 million E2-CAR-T cells, EC17 SIW 500 nmol/kg) is listed as “did not show symptoms of CRS”.

(Values after PMC6433934, “Preclinical Evaluation of Bispecific Adaptor Molecule Controlled Folate Receptor CAR-T Cell Therapy With Special Focus on Pediatric Malignancies” (Frontiers in Oncology, 2019).)
